The source made the active and inactive calls. The rule behind the calls is not given here.
Assays:
MIA PaCa-2 [1] = experiment: Antiproliferative activity against human MIAPaCa2 cells assessed as reduction in cell viability incubated for 72 hrs by MTT assay; type: functional, cell-based; conditions: MIA PaCa-2, 72 h
[2] = molecular target: T1, L-lactate dehydrogenase A chain (Homo sapiens, UniProt P00338); experiment: Inhibition of recombinant human full-length N-terminal His-tagged LDHA (1 to 332 residues) expressed in Escherichia coli using sodium pyruvate as substrate incubated for 10 mins
[3] = molecular target: T1, L-lactate dehydrogenase A chain; experiment: Inhibition of recombinant human full-length N-terminal His-tagged LDHA (1 to 332 residues) expressed in Escherichia coli at 10 uM using sodium pyruvate as substrate incubated for 10 mins relative to control
A549 [4] = experiment: Antiproliferative activity against human A549 cells assessed as reduction in cell viability at incubated for 72 hrs by MTT assay; type: functional, cell-based; conditions: A549, 72 h
MIA PaCa-2 [5] = experiment: Antiproliferative activity against human MIAPaCa2 cells assessed as reduction in cell viability at 50 uM incubated for 72 hrs by MTT assay relative to control; type: functional; conditions: for inhibition at 50 µM: MIA PaCa-2, 72 h
MCF7 = experiment: Antiproliferative activity against human MCF7 cells assessed as reduction in cell viability at 50 uM incubated for 72 hrs by MTT assay relative to control; type: functional; conditions: for inhibition at 50 µM: MCF7, 72 h
A549 [6] = experiment: Antiproliferative activity against human A549 cells assessed as reduction in cell viability at 50 uM incubated for 72 hrs by MTT assay relative to control; type: functional; conditions: for inhibition at 50 µM: A549, 72 h
MIA PaCa-2 [7] = experiment: Cell cycle arrest in human MIAPaCa2 cells assessed as accumulation at G2 phase at 5 uM incubated for 24 hrs by propidium iodide staining based flow cytometry (reference value: 31.00%); type: functional
MIA PaCa-2 [8] = experiment: Inhibition of colony formation in human MIAPaCa2 cells at 0.5 uM treated for 3 days and supplemented with fresh medium with out compound every 3 days measured after 15 days by crystal violet staining based assay; type: functional, cell-based
MIA PaCa-2 [9] = experiment: Induction of apoptosis in human MIAPaCa2 cells assessed as early apoptotic cells at 5 uM incubated for 12 hrs by annexin V and propidium iodide staining based flow cytometry analysis (reference value: 0.40 %); type: functional
MIA PaCa-2 [10] = experiment: Cell cycle arrest in human MIAPaCa2 cells assessed as accumulation at S phase at 5 uM incubated for 24 hrs by propidium iodide staining based flow cytometry (reference value: 12.99%); type: functional
MIA PaCa-2 [11] = experiment: Induction of apoptosis in human MIAPaCa2 cells assessed as late apoptotic cells at 5 uM incubated for 12 hrs by annexin V and propidium iodide staining based flow cytometry analysis (reference value: 3.21 %); type: functional
MIA PaCa-2 [12] = experiment: Cell cycle arrest in human MIAPaCa2 cells assessed as accumulation at G1 phase at 5 uM incubated for 24 hrs by propidium iodide staining based flow cytometry (reference value: 56.01%); type: functional
MIA PaCa-2 [13] = experiment: Induction of apoptosis in human MIAPaCa2 cells assessed as viable cells at 5 uM incubated for 12 hrs by annexin V and propidium iodide staining based flow cytometry analysis (reference value: 94.85 %); type: functional; conditions: MIA PaCa-2, 12 h, read-out: Activity
MIA PaCa-2 [14] = experiment: Induction of apoptosis in human MIAPaCa2 cells assessed as necrotic cells at 5 uM incubated for 12 hrs by annexin V and propidium iodide staining based flow cytometry analysis (reference value: 1.54 %); type: functional

Row | SMILES | IC50 (MIA PaCa-2 [1]) | EC50 [2] | inhibition [3] | IC50 (A549 [4]) | inhibition at 50 µM (MIA PaCa-2 [5]) | inhibition at 50 µM (MCF7) | inhibition at 50 µM (A549 [6]) | other results
1 | COc1ccccc1OCC(=O)NC1CCC(Oc2nc(C)cc(C)n2)CC1 (stereo not given) | > 50 µM | 4.1 µM | > 90% | > 50 µM | 25.7% | 9.7% | 5.9% | 
2 | O=C(c1ccco1)N1CCN(Cc2cc(=O)c(OCc3c(F)cccc3Cl)co2)CC1 | > 50 µM | 5.6 µM |  | > 50 µM |  |  |  | 
3 | COc1cccc(N2CCN(C3CCN(C(=O)c4cnn5c4OCCC5)CC3)CC2)c1 | > 50 µM | 3.4 µM | > 90% | > 50 µM | 12.4% | 17.9% | 25.8% | 
4 | COc1cccc2c1OC(C(=O)N1CCC(Cn3ccnc3C(C)C)CC1)C2 (stereo not given) | > 50 µM | 7.5 µM | > 90% | > 50 µM |  |  |  | inhibition (MIA PaCa-2 [5]): inactive; inhibition (MCF7): inactive; inhibition (A549 [6]): inactive
5 | Cc1ccccc1OCC(=O)NCc1nn(C2CCCC2)c2c1COCC2 | > 50 µM | 5.7 µM | > 90% | > 50 µM |  |  |  | inhibition (MIA PaCa-2 [5]): inactive; inhibition (MCF7): inactive; inhibition (A549 [6]): inactive
6 | O=C(CC1CSc2nc3c(cnn3-c3ccccc3)c(=O)n21)NCCCn1ccnc1 (stereo not given) | > 50 µM | 7.8 µM | > 90% | > 50 µM | 15.8% | 14.7% | 36.9% | 
7 | N#Cc1cccnc1N1CCC(CNC(=O)C(=O)Nc2cccc(C(F)(F)F)c2)CC1 | > 50 µM | 1.8 µM | > 90% | > 50 µM | 56.8% | 38.7% | 45.7% | 
8 | O=C(Cn1cnc2ccccc2c1=O)N1CCN(C(=O)c2cc3n(n2)CCCC3)CC1 | > 50 µM | 0.89 µM | > 90% | > 50 µM | 58.7% | 25.7% | 45.6% | 
9 | COc1cc(CNC(=O)c2c(OC)cc(=O)n3c2CCC3)cc(OC)c1OC | > 50 µM | 4.58 µM | > 90% | > 50 µM |  |  |  | inhibition (MIA PaCa-2 [5]): inactive; inhibition (MCF7): inactive; inhibition (A549 [6]): inactive
10 | O=C(CCC1CCCCC1)N1CCN(c2ncnc3c2nnn3Cc2ccccc2)CC1 | > 50 µM | 2.14 µM | > 90% | > 50 µM | 21.4% | 22.3% | 45.6% | 
11 | CC(=O)c1ccc(NC(=O)COc2cc(C)nc(C3CCC(C)CC3)n2)cc1 (stereo not given) | 29.8 µM | 1.2 µM | > 90% | 22.7 µM | 75.6% | 85.7% | 45.8% | 
12 | O=C(c1ccco1)N1CCN(Cc2cc(=O)c(OCc3ccc(F)cc3)co2)CC1 | > 50 µM | 9.7 µM |  | > 50 µM |  |  |  | 
13 | O=C(c1ccco1)N1CCN(Cc2cc(=O)c(OCc3cccc(F)c3)co2)CC1 | 24.5 µM | 3.7 µM |  | 18.9 µM |  |  |  | 
14 | Cc1ncn(CC(=O)N2CC(Oc3cc(C)n(C4CC4)c(=O)c3)C2)c(=O)c1C | > 50 µM | 6.4 µM | > 90% | > 50 µM |  | 12.3% | 4.5% | 
15 | O=C(NCC(=O)N1CCCC(Cc2nc(C3CC3)no2)C1)c1ccccc1 (stereo not given) | > 50 µM | 3.3 µM | > 90% | > 50 µM | 12.5% | 17.9% | 25.8% | 
16 | O=C(c1ccco1)N1CCN(Cc2cc(=O)c(OCc3cccc(Cl)c3)co2)CC1 | 3.8 µM | 0.27 µM |  | 5.7 µM |  |  |  | 
17 | O=C(c1ccco1)N1CCN(Cc2cc(=O)c(OCc3ccccc3Cl)co2)CC1 | > 50 µM | 12.4 µM |  | > 50 µM |  |  |  | 
18 | Cc1cc(N2CCC(CNS(=O)(=O)c3cccc4cccnc34)CC2)ccn1 | > 50 µM | 0.34 µM | > 90% | > 50 µM | 25.8% |  | 14.7% | 
19 | NC(=O)C(=O)O [SODIUM OXAMATE] | 18900 µM |  |  | 45800 µM |  |  |  | 
20 | O=C1N[C@](c2ccc(N3CCOCC3)cc2)(c2ccsc2)CC(O)=C1Sc1ccccc1Cl | 0.48 µM |  |  | 0.36 µM |  |  |  | 
21 | O=C(c1ccco1)N1CCN(Cc2cc(=O)c(OCc3ccccc3)co2)CC1 | 12.5 µM | 0.68 µM | > 90% | 14.7 µM | 95.6% | 93.4% | 84.7% | 
22 | COc1cccc2c1C(=O)c1c(O)c3c(c(O)c1C2=O)C[C@@](O)(C(=O)CO)C[C@@H]3O[C@H]1C[C@H](N)[C@H](O)[C@H](C)O1 [DOXORUBICIN] |  |  |  |  |  |  |  | Activity (MIA PaCa-2 [7]): 54.37%; inhibition (MIA PaCa-2 [8]): Active; Activity (MIA PaCa-2 [9]): 2.26%; Activity (MIA PaCa-2 [10]): 5.54%; Activity (MIA PaCa-2 [11]): 15.66%; Activity (MIA PaCa-2 [12]): 40.09%; viability at 5 µM (MIA PaCa-2 [13]): 74.7%; Activity (MIA PaCa-2 [14]): 7.4%
23 | Cc1ncn(CC(=O)N2CCC(Oc3cncc(N(C)C)n3)C2)c(=O)c1C (stereo not given) | > 50 µM | 2.9 µM | > 90% | > 50 µM | 25.8% | 50.1% | 47.8% | 

Reference: ChEMBL document CHEMBL4393717, “Development of novel human lactate dehydrogenase A inhibitors: High-throughput screening, synthesis, and biological evaluations” (Eur J Med Chem, 2019)
